Measured values taken from PubChem BioAssay AID330 (DTP/NCI, 2004).
Where “and” joins values, the source holds several entries; their conditions need not be identical. Identical values can stand only once. Toxic doses and inconclusive results are not listed. How the source made its calls: active means survival T/C of 150% or more; inactive means T/C below 125% in these data.

Test system: P388 leukemia ip, CD2F1 mice, survival T/C
Test: NCI In Vivo Anticancer Drug Screen. Data for tumor model P388 Leukemia (intraperitoneal) in CD2F1 (CDF1) mice
Conditions: endpoint: median survival time, higher = longer survival
How it was run: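 Mice carrying the transplanted tumor received test compound or vehicle. Survival was recorded in each group, and the value is the treated-group measurement divided by that of the vehicle-treated control group.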

[1] = dose: 60.0 mg/kg/injection, schedule: Q01DX005 (ip), vehicle: saline with Tween-80
[2] = dose: 120.0 mg/kg/injection, schedule: Q01DX005 (ip), vehicle: saline with Tween-80
[3] = dose: 240.0 mg/kg/injection, schedule: Q01DX005 (ip), vehicle: saline with Tween-80
[4] = dose: 50.0 mg/kg/injection, schedule: Q01DX005 (ip), vehicle: saline with Tween-80
[5] = dose: 100.0 mg/kg/injection, schedule: Q01DX005 (ip), vehicle: saline with Tween-80
[6] = dose: 200.0 mg/kg/injection, schedule: Q01DX005 (ip), vehicle: saline with Tween-80
[7] = dose: 50.0 mg/kg/injection, schedule: Q01DX005 (ip), vehicle: Klucel (hydroxypropylcellulose) (HPC)
[8] = dose: 12.5 mg/kg/injection, schedule: Q04DX002 (ip), vehicle: distilled water + Tween-80
[9] = dose: 25.0 mg/kg/injection, schedule: Q04DX002 (ip), vehicle: distilled water + Tween-80
[10] = dose: 100.0 mg/kg/injection, schedule: Q01DX009 (ip), vehicle: Klucel (hydroxypropylcellulose) (HPC)

Measured: T/C

C=CC1C(OC2OC(CO)C(O)C(O)C2O)OC=C(C(=O)OC)C1CC1CC(=O)CC(CCc2ccc(O)cc2)O1 (centres undefined)
inactive: dose: 8.0 mg/kg/injection, schedule: Q01DX005 (ip), vehicle: distilled water + Tween-80 96 % of control | dose: 16.0 mg/kg/injection, schedule: Q01DX005 (ip), vehicle: distilled water + Tween-80 99 % of control | dose: 25.0 mg/kg/injection, schedule: Q01DX005 (ip), vehicle: water 100 % of control | dose: 32.0 mg/kg/injection, schedule: Q01DX005 (ip), vehicle: distilled water + Tween-80 91 % of control | dose: 50.0 mg/kg/injection, schedule: Q01DX005 (ip), vehicle: water 99 % of control | dose: 64.0 mg/kg/injection, schedule: Q01DX005 (ip), vehicle: distilled water + Tween-80 90 % of control | dose: 100.0 mg/kg/injection, schedule: Q01DX005 (ip), vehicle: water 96 % of control | dose: 200.0 mg/kg/injection, schedule: Q01DX005 (ip), vehicle: water 99 % of control

Cc1onc(-c2ccccc2)c1C(=O)OCCOc1ccc(C(F)(F)F)cc1[N+](=O)[O-]
inactive: [1] 99 % of control | [2] 90 % of control | [3] 90 % of control

NC(=O)[C@H]1C[C@H](O)CN1C(=O)c1cnc2ccccc2c1
inactive: dose: 60.0 mg/kg/injection, schedule: Q01DX005 (ip), vehicle: saline 112 % of control | dose: 120.0 mg/kg/injection, schedule: Q01DX005 (ip), vehicle: saline 98 % of control | dose: 240.0 mg/kg/injection, schedule: Q01DX005 (ip), vehicle: saline 102 % of control

OC(CCl)Cn1nnc2ccccc21 (centres undefined)
inactive: [4] 103 % of control | [5] 100 % of control | dose: 100.0 mg/kg/injection, schedule: Q04DX003 (ip), vehicle: saline with Tween-80 93 % of control | [6] 94 % of control | dose: 200.0 mg/kg/injection, schedule: Q04DX003 (ip), vehicle: saline with Tween-80 98 % of control | dose: 400.0 mg/kg/injection, schedule: Q04DX003 (ip), vehicle: saline with Tween-80 99 % of control

O=C(N/N=C/C(O)C(O)C(O)C(O)C(=O)O)c1ccncc1 (centres undefined)
inactive: dose: 50.0 mg/kg/injection, schedule: Q01DX005 (ip), vehicle: saline 99 % of control | dose: 100.0 mg/kg/injection, schedule: Q01DX005 (ip), vehicle: saline 93 % of control | dose: 200.0 mg/kg/injection, schedule: Q01DX005 (ip), vehicle: saline 100 % of control

CC1=CC(=C2C(=O)c3ccccc3C2=O)C=C(C)N1CC#CCN1CCCCC1
inactive: [7] 108 % of control | dose: 100.0 mg/kg/injection, schedule: Q01DX005 (ip), vehicle: Klucel (hydroxypropylcellulose) (HPC) 98 % of control | dose: 200.0 mg/kg/injection, schedule: Q01DX005 (ip), vehicle: Klucel (hydroxypropylcellulose) (HPC) 88 % of control | dose: 240.0 mg/kg/injection, schedule: Q01DX005 (ip), vehicle: Klucel (hydroxypropylcellulose) (HPC) 90 % of control

Nc1csc(Nc2c3ccccc3nc3ccccc23)n1
inactive: [8] 98 % of control | [9] 97 % of control

CCn1c2ccccc2c2cc(N)c(N=Nc3ccc([N+](=O)[O-])cc3)cc21
inactive: dose: 50.0 mg/kg/injection, schedule: Q01DX009 (ip), vehicle: Klucel (hydroxypropylcellulose) (HPC) 105 % of control | [10] 104 % of control | dose: 200.0 mg/kg/injection, schedule: Q01DX009 (ip), vehicle: Klucel (hydroxypropylcellulose) (HPC) 105 % of control

C/C=C1\C[N+]2(C)C3CC1C(C[O-])(C(=O)OC)C2Cc1c3[nH]c2ccccc12 (centres undefined)
inactive: dose: 0.75 mg/kg/injection, schedule: Q01DX005 (ip), vehicle: Klucel (hydroxypropylcellulose) (HPC) 97 % of control | dose: 1.5 mg/kg/injection, schedule: Q01DX005 (ip), vehicle: Klucel (hydroxypropylcellulose) (HPC) 91 % of control | dose: 3.0 mg/kg/injection, schedule: Q01DX005 (ip), vehicle: Klucel (hydroxypropylcellulose) (HPC) 96 % of control | dose: 6.0 mg/kg/injection, schedule: Q01DX005 (ip), vehicle: Klucel (hydroxypropylcellulose) (HPC) 92 % of control

CN(C)C(=O)Oc1ccc(OC(=O)N(C)C)c2ccccc12
inactive: dose: 6.25 mg/kg/injection, schedule: Q01DX001 (ip), vehicle: Klucel (hydroxypropylcellulose) (HPC) 104 % of control | dose: 12.5 mg/kg/injection, schedule: Q01DX001 (ip), vehicle: Klucel (hydroxypropylcellulose) (HPC) 104 % of control | dose: 25.0 mg/kg/injection, schedule: Q01DX001 (ip), vehicle: Klucel (hydroxypropylcellulose) (HPC) 99 % of control and 100 % of control

CC(=O)C[n+]1ccccc1-c1ccccc1C
inactive: [4] 103 % of control

Cc1nn(-c2ccccn2)c2ncnc(N)c12
inactive: [4] 95 % of control | [5] 101 % of control | [6] 95 % of control

C/C(=C\c1cc(Cl)ccc1OCC(=O)O)[N+](=O)[O-]
inactive: dose: 50.0 mg/kg/injection, schedule: Q01DX001 (ip), vehicle: saline with Tween-80 108 % of control and 116 % of control | dose: 100.0 mg/kg/injection, schedule: Q01DX001 (ip), vehicle: saline with Tween-80 121 % of control and 96 % of control | dose: 200.0 mg/kg/injection, schedule: Q01DX001 (ip), vehicle: saline with Tween-80 121 % of control | dose: 400.0 mg/kg/injection, schedule: Q01DX001 (ip), vehicle: saline with Tween-80 115 % of control

Cc1c2cnccc2c(C)c2c1c1c(C)c3cnccc3c(C)c1n2C
inactive: dose: 6.25 mg/kg/injection, schedule: Q04DX002 (ip), vehicle: distilled water + Tween-80 94 % of control | [8] 97 % of control | [9] 102 % of control | dose: 50.0 mg/kg/injection, schedule: Q04DX002 (ip), vehicle: distilled water + Tween-80 108 % of control | dose: 100.0 mg/kg/injection, schedule: Q04DX002 (ip), vehicle: distilled water + Tween-80 94 % of control

Nc1ccc2c(c1)C(=O)N(OS(=O)(=O)c1ccccc1)C2=O
inactive: [1] 106 % of control | [2] 107 % of control | [3] 88 % of control

Cc1cc(C)c(CCl)c(C)c1CCl
inactive: dose: 25.0 mg/kg/injection, schedule: Q01DX009 (ip), vehicle: Klucel (hydroxypropylcellulose) (HPC) 106 % of control | [10] 100 % of control

CNC(=O)OCC[N+](C)(C)C
inactive: dose: 3.12 mg/kg/injection, schedule: Q01DX009 (ip), vehicle: saline 101 % of control | dose: 6.25 mg/kg/injection, schedule: Q01DX009 (ip), vehicle: saline 101 % of control

O=[N+]([O-])c1cc2c(cc1C1OCCO1)OCO2
inactive: dose: 25.0 mg/kg/injection, schedule: Q01DX009 (ip), vehicle: other 102 % of control | dose: 50.0 mg/kg/injection, schedule: Q01DX009 (ip), vehicle: other 100 % of control | dose: 100.0 mg/kg/injection, schedule: Q01DX009 (ip), vehicle: other 100 % of control | dose: 200.0 mg/kg/injection, schedule: Q01DX009 (ip), vehicle: other 98 % of control | dose: 400.0 mg/kg/injection, schedule: Q01DX009 (ip), vehicle: other 98 % of control

CCCCCCCCCCCCCCCCCC(=O)[Se][Se]C(=O)CCCCCCCCCCCCCCCCC
inactive: dose: 50.0 mg/kg/injection, schedule: Q01DX009 (ip), vehicle: saline + Tween-80 + alcohol 99 % of control | dose: 100.0 mg/kg/injection, schedule: Q01DX009 (ip), vehicle: saline + Tween-80 + alcohol 104 % of control | dose: 200.0 mg/kg/injection, schedule: Q01DX009 (ip), vehicle: saline + Tween-80 + alcohol 104 % of control

CCCCCCCCCCCC[N+]1([O-])CCOCC1
inactive: dose: 0.75 mg/kg/injection, schedule: Q01DX009 (ip), vehicle: saline with Tween-80 93 % of control | dose: 1.5 mg/kg/injection, schedule: Q01DX009 (ip), vehicle: saline with Tween-80 91 % of control | dose: 3.0 mg/kg/injection, schedule: Q01DX009 (ip), vehicle: saline with Tween-80 93 % of control | dose: 12.5 mg/kg/injection, schedule: Q01DX009 (ip), vehicle: saline 91 % of control | dose: 25.0 mg/kg/injection, schedule: Q01DX009 (ip), vehicle: saline 101 % of control and 94 % of control | dose: 50.0 mg/kg/injection, schedule: Q01DX009 (ip), vehicle: saline 99 % of control and 97 % of control

CCc1cccc(C)c1NC(=O)C(=O)CC(=O)CS(=O)(=O)c1ccc(C)cc1
inactive: [1] 109 % of control | [2] 111 % of control | [3] 104 % of control

Cc1cc2nc3c(C4OCC(O)C4O)nn(-c4ccc(F)cc4)c3nc2cc1C (centres undefined)
inactive: dose: 12.5 mg/kg/injection, schedule: Q01DX005 (ip), vehicle: Klucel (hydroxypropylcellulose) (HPC) 95 % of control | dose: 25.0 mg/kg/injection, schedule: Q01DX005 (ip), vehicle: Klucel (hydroxypropylcellulose) (HPC) 90 % of control | [7] 88 % of control
